Here are results for 23 molecules from ChEMBL document CHEMBL1909046, “DrugMatrix in vitro pharmacology data”.

For one assay, the target named is Melanocortin receptor 4 (Homo sapiens, UniProt P32245). The class given is cell membranes, Membrane. The conditions noted are these: hek293. Also: in other assays of this panel Not Active means under 50% inhibition at 10 µM.
In a further assay the target is T1, D(4) dopamine receptor (Homo sapiens, UniProt P21917).
T1 sequence (P21917 whole entry): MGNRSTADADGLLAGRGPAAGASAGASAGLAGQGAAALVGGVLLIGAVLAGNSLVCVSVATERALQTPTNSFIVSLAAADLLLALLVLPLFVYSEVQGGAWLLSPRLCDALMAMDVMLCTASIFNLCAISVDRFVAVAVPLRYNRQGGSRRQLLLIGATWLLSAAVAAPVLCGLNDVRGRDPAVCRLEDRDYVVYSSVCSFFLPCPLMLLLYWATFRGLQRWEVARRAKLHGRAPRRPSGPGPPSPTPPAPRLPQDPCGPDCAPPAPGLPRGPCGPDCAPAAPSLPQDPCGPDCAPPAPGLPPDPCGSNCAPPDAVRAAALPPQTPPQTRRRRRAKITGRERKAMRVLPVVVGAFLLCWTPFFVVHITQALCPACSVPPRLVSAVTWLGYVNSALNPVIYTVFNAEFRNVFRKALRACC
Nature of the assay: DRUGMATRIX: Dopamine D4.2 radioligand binding (ligand: [3H] Spiperone). It counts as cell membranes, CHO-K1, Membrane. The conditions noted are these: Not Active = under 50% inhibition at 10 µM.

The target in assay [1] is Protein phosphatase 3 catalytic subunit alpha (Homo sapiens, UniProt Q08209). The arrangement: species or system Escherichia coli.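 Also: inhibition of calcineurin (PP2B) enzyme activity, measured with DiFMUP as the substrate; in other assays of this panel Not Active means under 50% inhibition at 10 µM.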
A further assay deals with Glycine receptor (Rattus norvegicus, UniProt P22771+P24524+P07727+P20781). It counts as cell membranes, Wistar, Spinal cord, Membrane.
Assay [2] concerns the target 5-hydroxytryptamine receptor 1B (Rattus norvegicus, UniProt P28564). It counts as cell membranes, Wistar, Cerebral cortex, Membrane. Also: in other assays of this panel Not Active means under 50% inhibition at 10 µM.
A further assay has as its target Carbonic anhydrase 2 (Homo sapiens, UniProt P00918). Nature of the assay: DRUGMATRIX: Carbonic Anhydrase II enzyme inhibition (substrate: 4-Nitrophenyl acetate (4-NPA)). The class given is tissue-based, Erythrocyte. The conditions noted are these: erythrocyte; Not Active = under 50% inhibition at 10 µM.
The next assay addresses T2, Substance-K receptor (Homo sapiens, UniProt P21452).
T2 sequence (P21452 whole entry): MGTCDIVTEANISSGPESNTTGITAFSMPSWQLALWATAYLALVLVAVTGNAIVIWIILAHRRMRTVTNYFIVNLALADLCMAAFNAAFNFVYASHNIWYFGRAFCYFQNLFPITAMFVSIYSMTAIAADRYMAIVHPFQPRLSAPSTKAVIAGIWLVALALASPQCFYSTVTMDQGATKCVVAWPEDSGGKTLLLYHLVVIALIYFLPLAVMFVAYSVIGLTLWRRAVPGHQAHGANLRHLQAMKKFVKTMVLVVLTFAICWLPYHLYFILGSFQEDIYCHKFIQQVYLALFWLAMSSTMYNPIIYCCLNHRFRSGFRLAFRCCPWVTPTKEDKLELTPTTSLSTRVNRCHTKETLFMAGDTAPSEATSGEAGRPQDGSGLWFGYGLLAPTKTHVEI
The class given is cell membranes, CHO, Membrane. The conditions noted are these: for Ki: read-out: Ki.

Sequence of Melanocortin receptor 4 (P32245 whole entry): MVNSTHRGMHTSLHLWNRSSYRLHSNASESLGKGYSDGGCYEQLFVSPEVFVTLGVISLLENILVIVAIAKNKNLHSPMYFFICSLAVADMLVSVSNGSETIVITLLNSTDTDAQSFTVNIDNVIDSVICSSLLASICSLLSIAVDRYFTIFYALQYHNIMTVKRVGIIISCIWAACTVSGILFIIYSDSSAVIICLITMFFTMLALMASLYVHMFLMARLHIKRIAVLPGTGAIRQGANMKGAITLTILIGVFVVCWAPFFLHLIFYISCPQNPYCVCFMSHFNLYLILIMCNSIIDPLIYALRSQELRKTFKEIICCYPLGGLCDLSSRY
Sequence of 5-hydroxytryptamine receptor 1B (P28564 whole entry): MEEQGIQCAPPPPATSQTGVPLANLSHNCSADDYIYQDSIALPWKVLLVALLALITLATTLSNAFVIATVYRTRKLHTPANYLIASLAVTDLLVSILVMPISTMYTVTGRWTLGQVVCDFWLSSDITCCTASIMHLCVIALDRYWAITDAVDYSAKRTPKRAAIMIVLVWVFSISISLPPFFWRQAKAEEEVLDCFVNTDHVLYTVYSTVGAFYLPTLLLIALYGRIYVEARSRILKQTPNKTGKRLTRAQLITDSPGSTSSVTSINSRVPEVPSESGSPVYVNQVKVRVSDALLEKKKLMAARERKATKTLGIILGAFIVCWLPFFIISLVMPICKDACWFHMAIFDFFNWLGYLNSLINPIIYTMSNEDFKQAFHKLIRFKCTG

In the case of `CCCCC(=O)N(Cc1ccc(-c2ccccc2-c2nnn[nH]2)cc1)[C@H](C(=O)O)C(C)C`, the concentration for half-maximal inhibition (IC50) entry (against Melanocortin receptor 4; on D(4) dopamine receptor (cho-k1); in assay [1]; on Glycine receptor; in assay [2]; at Carbonic anhydrase 2) was “Not Active” each time. Moreover, at Substance-K receptor (cho), the IC50 result is on record as “Not Active”.
As for `O=C(O)COc1ccc(C(=O)c2cccs2)c(Cl)c1Cl`, the IC50 entry (on Melanocortin receptor 4; at D(4) dopamine receptor (cho-k1); in assay [1]; against Glycine receptor; in assay [2]; on Carbonic anhydrase 2) was “Not Active” throughout. At Substance-K receptor (cho), the half-maximal inhibitory concentration (IC50) entry is recorded as “Not Active”.
For the molecule `CN1[C@@H]2CC[C@H]1C[C@@H](OC(c1ccccc1)c1ccccc1)C2` [BENZTROPINE], the IC50 result (against Melanocortin receptor 4; on D(4) dopamine receptor (cho-k1); in assay [1]; on Glycine receptor; in assay [2]; against Carbonic anhydrase 2) was “Not Active” throughout. Moreover, the IC50 result against Substance-K receptor (cho) is reported as “Not Active”.
Regarding `C[C@@](Cc1ccc(O)c(O)c1)(NN)C(=O)O.O` [CARBIDOPA], the 50% inhibitory concentration (IC50) entry (at Melanocortin receptor 4; at D(4) dopamine receptor (cho-k1); in assay [1]; at Glycine receptor; in assay [2]; against Carbonic anhydrase 2) was “Not Active” throughout. In addition, the half-inhibitory concentration (IC50) entry against Substance-K receptor (cho) is “Not Active”.
Regarding `CN1CCN(C2=Nc3cc(Cl)ccc3Nc3ccccc32)CC1` [CLOZAPINE], the IC50 entry (against Melanocortin receptor 4; in assay [1]; on Glycine receptor; against Carbonic anhydrase 2; at Substance-K receptor (cho)) was “Not Active” each time.
On to `CC(C)NC[C@@H](O)COc1cccc2ccccc12` [DEXPROPRANOLOL], for which the half-maximal inhibitory concentration (IC50) entry (at Melanocortin receptor 4; at D(4) dopamine receptor (cho-k1); in assay [1]; on Glycine receptor; in assay [2]; on Carbonic anhydrase 2) was “Not Active” each time. Also, the IC50 result at Substance-K receptor (cho) is given as “Not Active”.
In the case of `CC(C)NC[C@H](O)COc1cccc2ccccc12` [LEVOPROPRANOLOL], the 50% inhibitory concentration (IC50) result (against Melanocortin receptor 4; at D(4) dopamine receptor (cho-k1); in assay [1]; against Glycine receptor; in assay [2]; at Carbonic anhydrase 2) was “Not Active” in each case. The IC50 result on Substance-K receptor (cho) is reported as “Not Active”.
Regarding `O=C(O)CCCCC1CCSS1` (stereo not drawn) [LIPOIC ACID, ALPHA], the IC50 entry (at Melanocortin receptor 4; on D(4) dopamine receptor (cho-k1); in assay [1]; at Glycine receptor; in assay [2]; against Carbonic anhydrase 2) was “Not Active” each time. For the same molecule, the 50% inhibitory concentration (IC50) result at Substance-K receptor (cho) is given as “Not Active”.
As to `CN(C)C(=O)C(CCN1CCC(O)(c2ccc(Cl)cc2)CC1)(c1ccccc1)c1ccccc1` [LOPERAMIDE], the half-maximal inhibitory concentration (IC50) result (against Melanocortin receptor 4; at D(4) dopamine receptor (cho-k1); in assay [1]; against Glycine receptor; in assay [2]; on Carbonic anhydrase 2) was “Not Active” throughout. The half-inhibitory concentration (IC50) entry against Substance-K receptor (cho) is on record as “Not Active”.
In the case of `Clc1ccc(COC(Cn2ccnc2)c2ccc(Cl)cc2Cl)c(Cl)c1` (stereo unspecified) [MICONAZOLE], the IC50 at D(4) dopamine receptor (read-out: IC50) is 15.3 µM; in assay [1], “Not Active”; against Glycine receptor it was “Not Active”; in assay [2] (read-out: IC50), 20.6 µM; against Carbonic anhydrase 2, “Not Active”; on Substance-K receptor (read-out: IC50) it was 4.84 µM. Also, the inhibition constant Ki amounted to 5.35 µM at D(4) dopamine receptor (read-out: Ki), 9.36 µM in assay [2] (read-out: Ki) and 1.61 µM on Substance-K receptor.
As for `Oc1ccc2c3c1O[C@H]1[C@@H](O)CC[C@@]4(O)[C@@H](C2)N(CC2CCC2)CC[C@]314` [NALBUPHINE], the IC50 entry (against Melanocortin receptor 4; on D(4) dopamine receptor (cho-k1); in assay [1]; against Glycine receptor; in assay [2]; against Carbonic anhydrase 2) was “Not Active” throughout. For the same molecule, the IC50 entry against Substance-K receptor (cho) is reported as “Not Active”.
Consider `C[C@]12C=CC(=O)C=C1CC[C@@H]1[C@@H]2C(=O)C[C@@]2(C)[C@H]1CC[C@]2(O)C(=O)CO` [PREDNISONE], for which the half-inhibitory concentration (IC50) result (against Melanocortin receptor 4; on D(4) dopamine receptor (cho-k1); in assay [1]; at Glycine receptor; in assay [2]; on Carbonic anhydrase 2) was “Not Active” in each case. Also, the IC50 result on Substance-K receptor (cho) was “Not Active”.
Regarding `OCCOCCN1CCN(C2=Nc3ccccc3Sc3ccccc32)CC1` [QUETIAPINE], the IC50 result (on Melanocortin receptor 4; at D(4) dopamine receptor (cho-k1); in assay [1]; against Glycine receptor; in assay [2]; against Carbonic anhydrase 2) was “Not Active” throughout. Besides, the IC50 entry against Substance-K receptor (cho) is given as “Not Active”.
As for `COC(=O)[C@H]1[C@H]2C[C@@H]3c4[nH]c5cc(OC)ccc5c4CCN3C[C@H]2C[C@@H](OC(=O)c2cc(OC)c(OC)c(OC)c2)[C@@H]1OC` [RESERPINE], the IC50 entry (against Melanocortin receptor 4; at D(4) dopamine receptor (cho-k1); in assay [1]; on Glycine receptor; in assay [2]; on Carbonic anhydrase 2) was “Not Active” in each case. Also, the IC50 result against Substance-K receptor (cho) was “Not Active”.
As to `O=C(O)c1ccccc1O` [SALICYLIC ACID], the IC50 entry (at Melanocortin receptor 4; at D(4) dopamine receptor (cho-k1); in assay [1]; against Glycine receptor; in assay [2]; at Carbonic anhydrase 2) was “Not Active” each time. Moreover, the half-inhibitory concentration (IC50) entry against Substance-K receptor (cho) was “Not Active”.
For `C[S+]([O-])c1ccc(-c2nc(-c3ccncc3)c(-c3ccc(F)cc3)[nH]2)cc1` (stereo unspecified) [SB-203580], the IC50 result (at Melanocortin receptor 4; at D(4) dopamine receptor (cho-k1); in assay [1]; at Glycine receptor; in assay [2]; against Carbonic anhydrase 2) was “Not Active” in each case. The concentration for half-maximal inhibition (IC50) result on Substance-K receptor (cho) is reported as “Not Active”.
Consider `CC1CCC(NC(=O)N(CCCl)N=O)CC1` (stereo unspecified) [SEMUSTINE], for which the IC50 entry (against Melanocortin receptor 4; on D(4) dopamine receptor (cho-k1); in assay [1]; against Glycine receptor; in assay [2]; at Carbonic anhydrase 2) was “Not Active” throughout. The 50% inhibitory concentration (IC50) entry against Substance-K receptor (cho) is on record as “Not Active”.
In the case of `O=C1C[C@@H]2OCC=C3CN4CC[C@]56c7ccccc7N1[C@H]5[C@H]2[C@H]3C[C@H]46` [STRYCHNINE], the IC50 entry (against Melanocortin receptor 4; on D(4) dopamine receptor (cho-k1); in assay [1]; in assay [2]; on Carbonic anhydrase 2; on Substance-K receptor (cho)) was “Not Active” each time.
Turning to `C[N+](C)(C)CCOC(=O)CCC(=O)OCC[N+](C)(C)C.[Cl-].[Cl-]` [SUCCINYLCHOLINE CHLORIDE], the IC50 result (against Melanocortin receptor 4; at D(4) dopamine receptor (cho-k1); in assay [1]; at Glycine receptor; in assay [2]; against Carbonic anhydrase 2) was “Not Active” each time. Also, the IC50 entry at Substance-K receptor (cho) was “Not Active”.
As for `Nc1ccc(S(=O)(=O)NC(=O)c2ccccc2)cc1` [SULFABENZAMIDE], the IC50 entry (against Melanocortin receptor 4; at D(4) dopamine receptor (cho-k1); in assay [1]; against Glycine receptor; in assay [2]; against Carbonic anhydrase 2) was “Not Active” in each case. Besides, the IC50 result against Substance-K receptor (cho) is on record as “Not Active”.
`CCCCCCCCNC(C)C(O)c1ccc(SC(C)C)cc1` (stereo unspecified) [SULOCTIDIL]: the half-maximal inhibitory concentration (IC50) result (at Melanocortin receptor 4; at D(4) dopamine receptor (cho-k1); in assay [1]; at Glycine receptor; in assay [2]; at Carbonic anhydrase 2) was “Not Active” each time. In addition, at Substance-K receptor (read-out: IC50), the half-maximal inhibitory concentration (IC50) was determined as 6.79 µM. At Substance-K receptor, the Ki amounted to 2.26 µM.
With `O=c1[nH]c(=O)n(C2CCCO2)cc1F` (stereo unspecified) [TEGAFUR], the half-maximal inhibitory concentration (IC50) entry (on Melanocortin receptor 4; at D(4) dopamine receptor (cho-k1); in assay [1]; at Glycine receptor; in assay [2]; on Carbonic anhydrase 2) was “Not Active” in each case. Also, at Substance-K receptor (cho), the IC50 entry is on record as “Not Active”.
With `CC(=N)S` [THIOACETAMIDE], the IC50 entry (on Melanocortin receptor 4; at D(4) dopamine receptor (cho-k1); in assay [1]; at Glycine receptor; in assay [2]; against Carbonic anhydrase 2) was “Not Active” in each case. For the same molecule, on Substance-K receptor (cho), the IC50 entry is “Not Active”.
